Assay results reported in ChEMBL document CHEMBL1159188, “Identification of novel (isoxazole)methylene-1-azabicyclic compounds with high affinity for the central nicotinic cholinergic receptor” (Bioorg Med Chem Lett, 1997).

Key:
[1] = biological target: Neuronal acetylcholine receptor; test: Inhibitory concentration required for in vitro binding affinity to cholinergic central Nicotinic acetylcholine receptor on rat brain cortex by using [3H]MCC
[2] = biological target: Muscarinic acetylcholine receptor; test: Inhibitory concentration required for in vitro binding affinity to cholinergic central muscarinic receptor on rat brain cortex by using [3H]OXO-M
[3] = biological target: T1, Neuronal acetylcholine receptor; alpha3/beta2 (Homo sapiens, UniProt P17787+P32297); test: Inhibitory concentration required for in vitro binding affinity to Nicotinic acetylcholine receptor alpha3-beta2 expressed on cell line sf 9 by using [3H]-MCC; parameters: species or system Rattus norvegicus
T1 sequence (P17787 whole entry): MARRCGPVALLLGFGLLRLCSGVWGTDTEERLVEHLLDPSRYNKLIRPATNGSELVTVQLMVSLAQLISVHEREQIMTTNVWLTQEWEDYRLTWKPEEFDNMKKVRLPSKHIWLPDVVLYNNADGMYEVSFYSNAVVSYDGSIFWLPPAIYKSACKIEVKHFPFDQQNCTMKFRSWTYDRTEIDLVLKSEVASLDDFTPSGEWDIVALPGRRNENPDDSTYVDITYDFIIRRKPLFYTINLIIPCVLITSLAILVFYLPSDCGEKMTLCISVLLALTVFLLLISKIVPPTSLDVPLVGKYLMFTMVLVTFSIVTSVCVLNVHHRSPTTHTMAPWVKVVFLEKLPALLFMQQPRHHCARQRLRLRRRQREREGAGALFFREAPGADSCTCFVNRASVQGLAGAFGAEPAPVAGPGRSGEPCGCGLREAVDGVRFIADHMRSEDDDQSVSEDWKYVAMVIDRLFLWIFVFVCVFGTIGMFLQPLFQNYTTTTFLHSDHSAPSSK
T1 sequence (P32297 whole entry): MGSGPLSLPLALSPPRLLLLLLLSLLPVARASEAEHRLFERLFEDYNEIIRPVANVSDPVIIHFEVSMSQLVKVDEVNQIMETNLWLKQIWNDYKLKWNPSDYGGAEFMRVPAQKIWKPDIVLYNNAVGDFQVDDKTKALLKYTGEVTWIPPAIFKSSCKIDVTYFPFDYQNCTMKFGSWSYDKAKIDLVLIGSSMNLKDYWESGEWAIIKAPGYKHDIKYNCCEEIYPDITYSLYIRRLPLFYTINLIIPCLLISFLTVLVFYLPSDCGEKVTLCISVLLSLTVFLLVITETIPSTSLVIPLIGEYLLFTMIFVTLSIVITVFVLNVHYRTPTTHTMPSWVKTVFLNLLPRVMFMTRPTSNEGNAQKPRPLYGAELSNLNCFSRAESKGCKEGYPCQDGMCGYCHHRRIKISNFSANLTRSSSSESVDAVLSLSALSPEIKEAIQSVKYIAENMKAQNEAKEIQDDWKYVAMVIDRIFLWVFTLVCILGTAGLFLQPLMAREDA

[4] = Inhibitory concentration required for in vitro binding affinity to Nicotinic acetylcholine receptor alpha4-beta2 expressed on cell line sf 21 by using [3H]-MCC
Rattus norvegicus [5] = test: Compound was tested in vivo against effective nicotinic agonistic activity in rat; assay type: functional
Rattus norvegicus [6] = species: Rattus norvegicus; test: The compound was tested for inducing [3H]dopamine release from striatal slices at 10 uM nicotine; assay type: functional
Rattus norvegicus [7] = species: Rattus norvegicus; test: The compound was tested for inducing [3H]dopamine release from striatal slices at 1 uM nicotine; assay type: functional
Rattus norvegicus [8] = test: Compound was tested in vivo against effective nicotinic agonistic activity in rat when administered s.c.; assay type: functional; settings: sc
Xenopus sp. [9] = species: Xenopus sp.; test: Compound was tested for inducing stimulation of current response in Xenopus oocytes (alpha3-beta2) at 30 uM; assay type: functional, frog
Mus musculus [10] = test: Compound was tested in vivo for exploratory locomotor activity in mice after peroral administration; assay type: functional; settings: po
Mus musculus [11] = test: Compound was tested in vivo for exploratory locomotor activity in mice after subcutaneous administration; assay type: functional; settings: sc
[12] = biological target: T1, Neuronal acetylcholine receptor; alpha3/beta2; test: Inhibitory concentration required for in vitro binding affinity to Nicotinic acetylcholine receptor alpha3-beta2 expressed on cell line Sf 9 by using [3H]MCC; parameters: species or system Rattus norvegicus
[13] = Inhibitory concentration required for in vitro binding affinity to Nicotinic acetylcholine receptor alpha4-beta2 expressed on cell line Sf 21 by using [3H]MCC
Rattus norvegicus [14] = species: Rattus norvegicus; test: Compound was tested for inducing [3H]-dopamine release from striatal slices at 10 uM nicotine; assay type: functional
Xenopus sp. [15] = species: Xenopus sp.; test: Compound was tested for inducing stimulation of current response in Xenopus oocytes (alpha4-beta2) at 1 uM; assay type: functional, frog
Rattus norvegicus [16] = species: Rattus norvegicus; test: Compound was tested for inducing [3H]dopamine release from striatal slices at 1 uM nicotine; assay type: functional
[17] = Inhibitory concentration required for in vitro binding affinity to Nicotinic acetylcholine receptor alpha4-beta2 expressed on cell line sf 21 by using [3H]MCC
Rattus norvegicus [18] = test: The compound was tested in vivo against effective nicotinic agonistic activity in rat; assay type: functional
Rattus norvegicus [19] = test: The compound was tested in vivo against effective nicotinic agonistic activity in rat when administered s.c.; assay type: functional; settings: sc

Cc1cc(C=C2CN3CCCC2C3)on1 (stereo not drawn) gave an IC50 [1] of 85 nM, an IC50 [2] of 1700 nM and an IC50 [3] of 117 nM. For the same compound, the IC50 [4] was 41 nM.

For Cc1cc(/C=C2/CN3CCC2C3)on1 (stereo not drawn), the IC50 [1] was 26 nM, the IC50 [2] was 2800 nM and the IC50 [3] was 14 nM. It also gave an Activity (Rattus norvegicus [5]) of 62%, an Activity (Rattus norvegicus [6]) of 46% and an Activity (Rattus norvegicus [7]) of 17%. For the same compound, the ED50 (Rattus norvegicus [8]) was 0.2 mg/kg, the Response (Xenopus sp. [9]) was 38% and the IC50 [4] was 6.5 nM.

Compound Cc1cc(/C=C2\CN3CCC2C3)on1 (stereo not drawn) has an ED50 (Mus musculus [10]) of 2 mg/kg, an ED50 (Mus musculus [11]) of 4.1 mg/kg and an IC50 [1] of 23 nM. The IC50 [2] was 1200 nM, the IC50 [12] was 15 nM and the IC50 [13] was 11 nM. For the same compound, the Activity (Rattus norvegicus [14]) was 80%, the Activity (Rattus norvegicus [5]) was 63% and the ED50 (Rattus norvegicus [8]) was 0.5 mg/kg. The Response (Xenopus sp. [9]) was 51%, the Response (Xenopus sp. [15]) was 171% and the Activity (Rattus norvegicus [16]) was 38%.

For Cc1cc(/C=C2/CN3CCC2CC3)on1, the IC50 [2] was 1500 nM, the IC50 [3] was 854 nM and the IC50 [17] was 288 nM.

Cc1cc(/C=C2\CN3CCC2CC3)on1 gave an ED50 (Mus musculus [10]) of 2.4 mg/kg, an ED50 (Mus musculus [11]) of 0.4 mg/kg and an IC50 [1] of 3.4 nM. It also gave an IC50 [2] of 1000 nM, an IC50 [3] of 1.9 nM and an Activity (Rattus norvegicus [6]) of 68%. The Activity (Rattus norvegicus [7]) was 51%, the Activity (Rattus norvegicus [18]) was 60% and the ED50 (Rattus norvegicus [19]) was 0.1 mg/kg. The Response (Xenopus sp. [9]) was 135%, the Response (Xenopus sp. [15]) was 300% and the IC50 [4] was 1.4 nM.

Compound Cc1cc(/C=C2\CN3CCCC2C3)on1 (stereo not drawn) has an IC50 [1] of 170 nM, an IC50 [2] of 950 nM and an IC50 [3] of 217 nM. The IC50 [4] was 26 nM.

Work on Cc1cc([C@@H]2CCCN2C)on1 [ABT-418] yielded an ED50 (Mus musculus [10]) of 72 mg/kg, an ED50 (Mus musculus [11]) of 10 mg/kg and an IC50 [3] of 62 nM. It also gave an Activity (Rattus norvegicus [5]) of 72%, an Activity (Rattus norvegicus [6]) of 66% and an Activity (Rattus norvegicus [7]) of 5%. For the same compound, the ED50 (Rattus norvegicus [8]) was 0.2 mg/kg, the Response (Xenopus sp. [9]) was 40% and the Response (Xenopus sp. [15]) was 24%. For the same compound, the IC50 [4] was 37 nM.

With CN1CCC[C@H]1c1cccnc1 [NICOTINE] the ED50 (Mus musculus [10]) was over 9 mg/kg, the ED50 (Mus musculus [11]) was 0.3 mg/kg and the Activity (Rattus norvegicus [6]) was 180%. It also gave an Activity (Rattus norvegicus [7]) of 100%, an Activity (Rattus norvegicus [18]) of 96% and an ED50 (Rattus norvegicus [19]) of 0.04 mg/kg. The Response (Xenopus sp. [9]) was 100%, the Response (Xenopus sp. [15]) was 100% and the IC50 [4] was 4.2 nM.
